Assay results: the NIST ThermoML archive (doi:10.1016/j.tca.2008.05.002)

Assay: molar heat capacity at saturation pressure
Conditions: Small (less than 1 g) adiabatic calorimetry

CCCCn1cc[n+](C)c1.O=[N+]([O-])[O-] [1-butyl-3-methylimidazolium nitrate]
Conditions	molar heat capacity [J/K/mol]
223.56 K, Crystal 4	239.25
224.66 K, Crystal 4	240.26
225.64 K, Crystal 4	241.27
226.74 K, Crystal 4	242.07
227.72 K, Crystal 4	243.28
228.81 K, Crystal 4	244.08
229.79 K, Crystal 4	245.29
230.88 K, Crystal 4	246.1
231.86 K, Crystal 4	247.3
232.95 K, Crystal 4	248.31
233.92 K, Crystal 4	249.32
235.01 K, Crystal 4	250.32
235.97 K, Crystal 4	251.53
237.06 K, Crystal 4	252.54
238.03 K, Crystal 4	253.54
239.1 K, Crystal 4	254.75
239.2 K, Crystal 4	254.95
240.07 K, Crystal 4	255.55
241.14 K, Crystal 4	256.96
241.7 K, Crystal 4	257.57
242.11 K, Crystal 4	257.77
243.17 K, Crystal 4	259.18
244.08 K, Crystal 4	260.18
244.15 K, Crystal 4	259.98
245.2 K, Crystal 4	261.39
246.17 K, Crystal 4	262.6
246.45 K, Crystal 4	262.8
247.22 K, Crystal 4	263.8
248.19 K, Crystal 4	265.01
248.81 K, Crystal 4	265.61
249.23 K, Crystal 4	266.42
250.2 K, Crystal 4	267.63
251.15 K, Crystal 4	268.43
251.23 K, Crystal 4	269.04
252.21 K, Crystal 4	270.04
253.23 K, Crystal 4	271.45
253.48 K, Crystal 4	271.45
254.2 K, Crystal 4	272.66
255.22 K, Crystal 4	274.27
255.8 K, Crystal 4	274.87
256.19 K, Crystal 4	275.68
257.2 K, Crystal 4	277.29
258.1 K, Crystal 4	278.49
258.18 K, Crystal 4	278.49
259.18 K, Crystal 4	280.3
260.15 K, Crystal 4	281.51
260.4 K, Crystal 4	282.11
261.14 K, Crystal 4	283.32
262.11 K, Crystal 4	284.53
262.67 K, Crystal 4	286.14
263.1 K, Crystal 4	286.54
264.07 K, Crystal 4	287.95
264.94 K, Crystal 4	289.96
265.05 K, Crystal 4	289.56
266.02 K, Crystal 4	291.37
267 K, Crystal 4	293.79
267.19 K, Crystal 4	294.19
267.95 K, Crystal 4	295.4
268.93 K, Crystal 4	297.81
269.43 K, Crystal 4	299.02
269.88 K, Crystal 4	299.82
270.85 K, Crystal 4	302.44
271.65 K, Crystal 4	304.85
271.78 K, Crystal 4	304.65
271.8 K, Liquid	345.1
272.76 K, Crystal 4	307.47
273.68 K, Crystal 4	310.69
273.85 K, Crystal 4	312.1
274.46 K, Liquid	345.9
274.66 K, Crystal 4	313.71
275.56 K, Crystal 4	318.94
276.02 K, Crystal 4	318.54
276.35 K, Crystal 4	310.08
277.02 K, Liquid	346.71
277.33 K, Crystal 4	355.76
277.73 K, Crystal 4	345.5
277.82 K, Crystal 4	609.71
278.14 K, Crystal 4	322.56
278.16 K, Crystal 4	408.68
278.25 K, Crystal 4	455.57
278.82 K, Crystal 3	545.72
279.03 K, Crystal 3	470.06
279.41 K, Liquid	347.51
279.47 K, Crystal 3	414.92
279.88 K, Crystal 3	382.53
280.31 K, Crystal 3	308.07
280.95 K, Crystal 3	310.08
281.81 K, Liquid	348.32
281.84 K, Crystal 3	313.91
281.86 K, Crystal 3	314.31
282.47 K, Crystal 3	319.54
283.34 K, Crystal 3	324.98
283.95 K, Crystal 3	333.43
284.03 K, Crystal 3	333.23
284.21 K, Liquid	349.12
284.81 K, Crystal 3	341.48
285.42 K, Crystal 3	355.56
286.1 K, Crystal 3	372.26
286.25 K, Crystal 3	363.41
286.61 K, Liquid	349.93
286.8 K, Crystal 3	390.78
287.64 K, Crystal 3	372.26
288.03 K, Crystal 3	432.83
288.12 K, Crystal 2	417.54
289.01 K, Liquid	350.73
289.03 K, Crystal 2	359.38
289.45 K, Crystal 2	366.43
289.95 K, Crystal 2	362.2
290.42 K, Crystal 2	367.43
290.84 K, Crystal 2	370.25
291.41 K, Liquid	351.54
291.75 K, Crystal 2	425.39
291.98 K, Crystal 2	378.5
292.18 K, Crystal 2	416.33
293 K, Crystal 1	432.03
293.5 K, Crystal 1	380.51
293.81 K, Liquid	352.34
293.98 K, Crystal 1	378.1
294.33 K, Crystal 1	377.9
294.87 K, Crystal 1	383.53
295.97 K, Crystal 1	397.01
296.14 K, Crystal 1	399.03
296.21 K, Liquid	353.15
296.66 K, Crystal 1	410.29
297.89 K, Crystal 1	432.63
298.32 K, Crystal 1	442.09
298.61 K, Liquid	353.95
298.79 K, Crystal 1	458.19
299.7 K, Crystal 1	486.36
300.51 K, Crystal 1	519.76
300.77 K, Crystal 1	538.67
301.01 K, Liquid	354.76
301.36 K, Crystal 1	572.08
302.38 K, Crystal 1	652.97
302.52 K, Crystal 1	675.3
302.83 K, Crystal 1	708.51
303.42 K, Liquid	355.76
303.87 K, Crystal 1	876.13
303.98 K, Crystal 1	909.13
304.08 K, Crystal 1	926.83
305.82 K, Liquid	356.57
308.22 K, Liquid	357.37
310.14 K, Liquid	358.38
310.4 K, Liquid	358.58
310.62 K, Liquid	358.38
311.19 K, Liquid	358.58
312.54 K, Liquid	359.18
313.02 K, Liquid	358.98
313.34 K, Liquid	359.18
314.75 K, Liquid	359.99
315.42 K, Liquid	360.19
315.54 K, Liquid	359.99
316.76 K, Liquid	360.59
317.74 K, Liquid	360.99
317.82 K, Liquid	360.99
318.76 K, Liquid	361.6
319.94 K, Liquid	361.8
320.21 K, Liquid	362
320.76 K, Liquid	362.4
322.14 K, Liquid	362.81
322.61 K, Liquid	363.01
322.77 K, Liquid	363.41
324.34 K, Liquid	363.61
324.77 K, Liquid	364.01
325.01 K, Liquid	363.81
326.54 K, Liquid	364.62
326.77 K, Liquid	364.62
327.41 K, Liquid	365.02
328.73 K, Liquid	365.22
328.78 K, Liquid	365.42
329.81 K, Liquid	365.82
330.78 K, Liquid	366.43
330.93 K, Liquid	366.23
332.2 K, Liquid	366.83
332.78 K, Liquid	367.23
333.12 K, Liquid	367.03
334.6 K, Liquid	367.84
334.78 K, Liquid	368.24
335.32 K, Liquid	367.84
336.78 K, Liquid	368.84
336.99 K, Liquid	368.64
337.51 K, Liquid	369.04
338.78 K, Liquid	369.65
339.71 K, Liquid	369.65
340.78 K, Liquid	370.45
341.9 K, Liquid	370.45
342.78 K, Liquid	371.46
344.09 K, Liquid	371.46
344.78 K, Liquid	372.26
346.29 K, Liquid	372.46
346.78 K, Liquid	373.27
348.48 K, Liquid	373.47
348.78 K, Liquid	374.07
350.68 K, Liquid	374.28
350.78 K, Liquid	374.88
352.78 K, Liquid	375.68
352.87 K, Liquid	375.48
354.78 K, Liquid	376.69
355.06 K, Liquid	376.29
356.78 K, Liquid	377.7
357.25 K, Liquid	377.49
358.78 K, Liquid	378.3
359.44 K, Liquid	378.3
360.77 K, Liquid	379.31
361.63 K, Liquid	379.31
363.82 K, Liquid	380.11
366.01 K, Liquid	381.12
368.19 K, Liquid	382.32
